≈ marks a conversion by molar mass, not a printed value. Structures can show the parent of a compound that is named as a salt. Where two headings read alike, the source gives them in different places.
Experiments:
[1] = test system: E. coli clinical isolates (n = 36); test: MIC, multidrug-resistant clinical isolates; assay type: cell-based, Escherichia coli; conditions: E. coli MDR clinical isolates (n = 36)
Description: (§1) The bacterial reference strains used in this study were purchased from ATCC (American Type Culture Collection) via LGC Standards (Middlesex, UK). […] Clinical MDR isolates were provided by Aptuit, the IHMA Europa Sàrl repository (Epalinges, Switzerland) and the Statens Serum Institute (Copenhagen, Denmark).
(§2) MICs were determined by the broth microdilution method (the agar dilution method was used only for N. gonorrhoeae) according to CLSI guidelines.
(§3) The results obtained using clinical isolates are reported as MIC50 and MIC90 values.

[2] = test system: E. faecalis clinical isolates (n = 12) vanA (6)/vanB (6); test: MIC, multidrug-resistant clinical isolates; assay type: cell-based; conditions: for MIC: read-out: MIC range
Description: as §1, §2, §3

[3] = test system: E. faecium clinical isolates (n = 12) vanA (6)/vanB (6); test: MIC, multidrug-resistant clinical isolates; assay type: cell-based; conditions: for MIC: read-out: MIC range
Description: as §1, §2, §3

[4] = test system: C. difficile clinical isolates (n = 21); test: MIC, multidrug-resistant clinical isolates; assay type: cell-based, Clostridium difficile; conditions: Clostridioides difficile; for MIC: read-out: MIC range
Description: as §1, §2, §3

[5] = test system: S. aureus clinical isolates (n = 10); test: microbe, parasite or virus in culture; assay type: cell-based, Staphylococcus aureus
Description: as §1, §2, §3

E. coli ATCC 25922 = test: Minimal bactericidal concentration; assay type: cell-based, Escherichia coli; conditions: Escherichia coli, ATCC25922, ≥99.9% reduction of inoculum
Description: (§4) Minimal bactericidal concentrations (MBCs) were determined according to the procedure described by Knapp. Viable counts were performed after plates were incubated at 37°C for 24 hours. The MBC was defined as the lowest concentration that reduced the viability of the initial bacterial inoculum by ≥99.9%.

S. aureus ATCC BAA-1720 = test: Time-kill assay; assay type: cell-based, Staphylococcus aureus; conditions: 1× to 4× MIC, over 24 hours
Description: Time-kill experiments were performed according to the procedure reported by Knapp. […] A drug-free control was included in each experiment. The bacterial cultures were standardized to obtain an initial inoculum that ranged from 5×10^5 to 5×10^6 CFU/ml. The cultures were incubated at 37°C in a shaking bath. At 0, 2, 4, 8 and 24-hour intervals, viable counts were performed by spotting (in triplicate) 10 μl aliquots of suitable dilutions of the cultures onto Mueller-Hinton agar (MHA, Oxoid, Basingstoke, UK) plates. After incubation at 37°C for 24 hours, the bactericidal activity, namely, the ability to reduce the initial inoculum by 3 log10 CFU/ml, was assessed for each tested concentration over time.

S. aureus ATCC 29213 [6] = test: Post-antibiotic effect (PAE); assay type: cell-based, Staphylococcus aureus
Description: A drug-free control was included in each experiment. After being exposed to the drug for 1 hour, viable counts were conducted in triplicate by spotting aliquots (10 μl) of suitable dilutions onto MHA plates. The drugs were removed by diluting the bacterial cultures (1:1000) in Cation-Adjusted Mueller-Hinton Broth (CAMHB; Sigma-Aldrich). The diluted cultures were incubated in a shaking bath at 37°C. To monitor the ongoing suppression of bacterial growth over time (5 hours), aliquots from each broth culture were periodically collected, diluted and plated to perform subsequent viable counts (in triplicate).

S. aureus BAA-1720 = test: Minimal bactericidal concentration; assay type: cell-based, Staphylococcus aureus; conditions: Staphylococcus aureus, BAA1720, ≥99.9% reduction of inoculum
Description: as §4

S. aureus ATCC 29213 [7] = test: Minimal bactericidal concentration; assay type: cell-based, Staphylococcus aureus; conditions: Staphylococcus aureus, ATCC29213, ≥99.9% reduction of inoculum
Description: as §4

[8] = test system: N. gonorrhoeae clinical isolates (n = 38); test: microbe, parasite or virus in culture; assay type: cell-based, Neisseria gonorrhoeae
Description: as §1, §2, §3

C. difficile ATCC 700057 = test: MIC, broth microdilution; assay type: cell-based, Clostridium difficile; conditions: Clostridioides difficile, ATCC700057
Description: MICs were determined by the broth microdilution method (the agar dilution method was used only for N. gonorrhoeae) according to CLSI guidelines. […] The MIC values of antibiotics used in clinical practice were interpreted according to the susceptibility interpretive criteria reported in the appropriate CLSI Tables (M100-S25, CLSI, 2015).

[9] = test system: A. baumannii clinical isolates (n = 10); test: microbe, parasite or virus in culture; assay type: cell-based, Acinetobacter baumannii; conditions: Acinetobacter baumannii
Description: as §1, §2, §3

[10] = Escherichia coli, read-out: MIC50
[11] = Escherichia coli, read-out: MIC90
[12] = E. faecalis clinical isolates (n = 12), vanA (6)/vanB (6)
[13] = E. faecium clinical isolates (n = 12), vanA (6)/vanB (6)
[14] = C. difficile clinical isolates (n = 21), read-out: MIC50
[15] = C. difficile clinical isolates (n = 21), read-out: MIC90
[16] = C. difficile clinical isolates (n = 21)

C[C@H]1COc2c(N3CCN(C)CC3)c(F)cc3c(=O)c(C(=O)O)cn1c23 [levofloxacin]
MIC range [1]: 0.03 to 32 µg/mL
MIC50 [1, 10]: 4 µg/mL (≈ 11.1 µM)
MIC90 [1, 11]: 16 µg/mL (≈ 44.3 µM)

CN[C@H](CC(C)C)C(=O)N[C@H]1C(=O)N[C@@H](CC(N)=O)C(=O)N[C@H]2C(=O)N[C@H]3C(=O)N[C@H](C(=O)N[C@H](C(=O)O)c4cc(O)cc(O)c4-c4cc3ccc4O)[C@H](O)c3ccc(c(Cl)c3)Oc3cc2cc(c3O[C@@H]2O[C@H](CO)[C@@H](O)[C@H](O)[C@H]2O[C@H]2C[C@](C)(N)[C@H](O)[C@H](C)O2)Oc2ccc(cc2Cl)[C@H]1O [vancomycin, vancomycin hydrochloride, reference compound]
MIC50 ([2]; Enterococcus faecalis): > 64 µg/mL
MIC90 ([2]; Enterococcus faecalis): > 64 µg/mL
MIC50 ([3]; Enterococcus faecium): > 64 µg/mL
MIC90 ([3]; Enterococcus faecium): > 64 µg/mL
MIC ([3]; Enterococcus faecium): > 64 µg/mL
MIC50 [4]: 2 µg/mL
MIC90 [4]: 2 µg/mL
MIC [4]: 1 to 2 µg/mL
MIC range ([5]; S. aureus MDR clinical isolates (n = 10)): 1 to 4 µg/mL
MIC50 ([5]; Staphylococcus aureus): 1 µg/mL
MIC90 ([5]; Staphylococcus aureus): 2 µg/mL

teicoplanin [reference compound]
MIC50 [2, 12]: >64 µg/mL
MIC90 [2, 12]: >64 µg/mL
MIC50 [3, 13]: 1 µg/mL
MIC90 [3, 13]: 64 µg/mL

colistin sulfate
MIC50 [1]: 0.5 µg/mL
MIC90 [1]: 0.5 µg/mL

CC(=O)NC[C@H]1CN(c2ccc(N3CCOCC3)c(F)c2)C(=O)O1 [linezolid, reference compound]
MIC50 ([2]; Enterococcus faecalis): 2 µg/mL (≈ 5.93 µM)
MIC90 ([2]; Enterococcus faecalis): 2 µg/mL (≈ 5.93 µM)
MIC ([2]; Enterococcus faecalis): 1 to 2 µg/mL (≈ 2.96 to 5.93 µM)
MIC50 ([3]; Enterococcus faecium): 2 µg/mL (≈ 5.93 µM)
MIC90 ([3]; Enterococcus faecium): 2 µg/mL (≈ 5.93 µM)
MIC ([3]; Enterococcus faecium): 2 µg/mL (≈ 5.93 µM)

O=C(O)c1cn(C2CC2)c2cc(N3CCNCC3)c(F)cc2c1=O [ciprofloxacin, Ciprofloxacin hydrochloride, reference compound]
MBC (E. coli ATCC 25922): 0.016 µg/mL
Bactericidal activity in time-kill (reduction of 3 log10 CFU/ml) (S. aureus ATCC BAA-1720): no bactericidal effect
PAE (S. aureus ATCC 29213 [6]; 1-hour exposure at 1× and 4× MIC): 25 min
PAE (S. aureus ATCC 29213 [6]; 1-hour exposure at 16× MIC): 35 min
MBC (S. aureus BAA-1720): 256 µg/mL
MBC (S. aureus ATCC 29213 [7]): 1 µg/mL

C[C@@H](O)[C@H]1C(=O)N2C(C(=O)O)=C(SCCN=CN)C[C@H]12 [imipenem, imipenem monohydrate, reference compound]
MIC50 [4, 14]: 8 µg/mL
MIC90 [4, 15]: 16 µg/mL
MIC [4, 16]: 2 to 16 µg/mL
MIC ([1]; Escherichia coli): 0.06 to 16 µg/mL
MIC50 [1, 10]: 0.12 µg/mL
MIC90 [1, 11]: 4 µg/mL

CO/N=C(\C(=O)N[C@@H]1C(=O)N2C(C(=O)O)=C(CSc3nc(=O)c(=O)[nH]n3C)CS[C@H]12)c1csc(N)n1 [ceftriaxone, ceftriaxone sodium, reference compound]
MIC range [8]: ≤0.002 to 0.12 µg/mL
MIC50 ([8]; Neisseria gonorrhoeae): 0.012 µg/mL
MIC90 ([8]; Neisseria gonorrhoeae): 0.094 µg/mL
MIC range [1]: 0.03 to 32 µg/mL
MIC50 [1, 10]: 1 µg/mL
MIC90 [1, 11]: 32 µg/mL

Cc1ncc([N+](=O)[O-])n1CCO [metronidazole, reference compound]
MIC50 [4, 14]: 0.5 µg/mL (≈ 2.92 µM)
MIC90 [4, 15]: 1 µg/mL (≈ 5.84 µM)
MIC [4, 16]: 0.25 to 2 µg/mL (≈ 1.46 to 11.7 µM)
MIC (C. difficile ATCC 700057): 0.25 µg/mL (≈ 1.46 µM)

C[C@@H](O)[C@H]1C(=O)N2C(C(=O)O)=C(S[C@@H]3CN[C@H](C(=O)N(C)C)C3)[C@H](C)[C@H]12 [meropenem, reference compound]
MIC50 [9]: 8 µg/mL (≈ 20.9 µM)
MIC90 [9]: ≥ 8 µg/mL

CN(C)[C@@H]1C(O)=C(C(N)=O)C(=O)[C@@]2(O)C(O)=C3C(=O)c4c(O)cccc4[C@@](C)(O)[C@H]3C[C@@H]12 [tetracycline, tetracycline hydrochloride]
MIC50 [1, 10]: 16 µg/mL
MIC90 [1, 11]: > 64 µg/mL

CCc1c(Cl)c(O)c(Cl)c(O)c1C(=O)O[C@H]1[C@H](O)[C@H](OC)[C@H](OC/C2=C\C=C\C[C@H](O)/C(C)=C/[C@H](CC)[C@@H](O[C@@H]3OC(C)(C)[C@@H](OC(=O)C(C)C)[C@H](O)[C@@H]3O)/C(C)=C/C(C)=C/C[C@@H]([C@@H](C)O)OC2=O)O[C@@H]1C [fidaxomicin, reference compound]
MIC [4, 16]: 0.03 to 1 µg/mL (≈ 0.0284 to 0.945 µM)

CCC[C@@H]1C[C@@H](C(=O)N[C@@H]([C@H]2O[C@H](SC)[C@H](O)[C@@H](O)[C@H]2O)[C@H](C)Cl)N(C)C1 [clindamycin, clindamycin hydrochloride, reference compound]
MIC50 [4, 14]: 8 µg/mL
MIC90 [4, 15]: 32 µg/mL
MIC [4, 16]: 4 to 32 µg/mL

CC1(C)S[C@@H]2[C@H](NC(=O)[C@H](N)c3ccccc3)C(=O)N2[C@H]1C(=O)O [ampicillin, reference compound]
MIC50 ([2]; Enterococcus faecalis): 2 µg/mL (≈ 5.72 µM)
MIC90 ([2]; Enterococcus faecalis): 2 µg/mL (≈ 5.72 µM)
MIC ([2]; Enterococcus faecalis): 1 to 4 µg/mL (≈ 2.86 to 11.4 µM)
MIC50 ([3]; Enterococcus faecium): > 64 µg/mL
MIC90 ([3]; Enterococcus faecium): > 64 µg/mL
MIC ([3]; Enterococcus faecium): > 64 µg/mL
MIC50 [1, 10]: > 64 µg/mL
MIC90 [1, 11]: > 64 µg/mL

CCCCCCCCCC(=O)N[C@@H](Cc1c[nH]c2ccccc12)C(=O)N[C@H](CC(N)=O)C(=O)N[C@@H](CC(=O)O)C(=O)N[C@@H]1C(=O)NCC(=O)N[C@@H](CCCN)C(=O)N[C@@H](CC(=O)O)C(=O)N[C@H](C)C(=O)N[C@@H](CC(=O)O)C(=O)NCC(=O)N[C@H](CO)C(=O)N[C@@H]([C@H](C)CC(=O)O)C(=O)N[C@@H](CC(=O)c2ccccc2N)C(=O)O[C@@H]1C [daptomycin, reference compound]
MIC50 ([2]; Enterococcus faecalis): 1 µg/mL (≈ 0.617 µM)
MIC90 ([2]; Enterococcus faecalis): 1 µg/mL (≈ 0.617 µM)
MIC ([2]; Enterococcus faecalis): 0.5 to 2 µg/mL (≈ 0.309 to 1.23 µM)
MIC50 ([3]; Enterococcus faecium): 4 µg/mL (≈ 2.47 µM)
MIC90 ([3]; Enterococcus faecium): 4 µg/mL (≈ 2.47 µM)
MIC ([3]; Enterococcus faecium): 2 to 4 µg/mL (≈ 1.23 to 2.47 µM)

CC1(C)S[C@@H]2[C@H](NC(=O)Cc3ccccc3)C(=O)N2[C@H]1C(=O)O [penicillin, penicillin G potassium, reference compound]
MIC50 ([2]; Enterococcus faecalis): 4 µg/mL
MIC90 ([2]; Enterococcus faecalis): 8 µg/mL
MIC ([2]; Enterococcus faecalis): 2 to 16 µg/mL
MIC50 ([3]; Enterococcus faecium): > 64 µg/mL
MIC90 ([3]; Enterococcus faecium): > 64 µg/mL
MIC ([3]; Enterococcus faecium): > 64 µg/mL

CNC(C)C1CCC(N)C(OC2C(N)CC(N)C(OC3OCC(C)(O)C(NC)C3O)C2O)O1 (stereo not drawn) [gentamicin, gentamicin sulfate]
MIC50 [1, 10]: 2 µg/mL
MIC90 [1, 11]: 32 µg/mL

Source: article PMC7029851, “Antibacterial activity of novel dual bacterial DNA type II topoisomerase inhibitors” (PLoS ONE, 2020)
